We go through nine molecules from US20250066864A1, “METHODS FOR IDENTIFYING ADAR1 INHIBITORS, AND COMPOSITIONS AND METHODS OF USE IN TREATING CANCER” (The Wistar Institute of Anatomy and Biology, priority 2021, published 2025).

Experiment [1] has as its system IMR90 normal fibroblast cells. Briefly: Apo Tox-Glo viability assay, IMR90 normal fibroblast cells. The following applies: 5 μM, 3 days. The class given is cell-based. How it is done:
(§1) HeLa, U2OS, and MRI90 cells were cultured in the presence of ADAR1 inhibitors, 5 μM or 20 μM, for 3 days. Their viability was examined using the Apo Tox-Glo assay system (Promega), which measures plasma membrane penetration of glycyl-phenyl-alanyl-aminofluorocoumarin peptide. Control, 0.3% DMSO. […] Data are mean±S.D. (n=3, biological replicates).
(§2) FIGS. 29A-29D Characterization of Compound #13 effects in cancer cells. […] Viability was examined using the Apo Tox-Glo assay system (Promega). Control, 0.3% DMSO. (FIG. 29B) Western blotting analysis of HeLa cells treated with Compound #13 (10 μM). […] (FIG. 29D) Activation of the IFN signaling pathway. HSC-4 squamous carcinoma cells were treated with Compound #13 at 10 μM (12 hrs). RNA samples were analyzed by qRT-PCR to monitor expression levels of ISGs.

In experiment [2] the target is T1, ADAR1p110 (Homo sapiens, UniProt P55265).
T1 construct: HAT (N); FLAG (alternative preparation, not on the same molecule as HAT) (N); made in house; host or cells: Sf9 insect cells, baculovirus
T1 sequence (P55265 1-931 isoform P55265-5): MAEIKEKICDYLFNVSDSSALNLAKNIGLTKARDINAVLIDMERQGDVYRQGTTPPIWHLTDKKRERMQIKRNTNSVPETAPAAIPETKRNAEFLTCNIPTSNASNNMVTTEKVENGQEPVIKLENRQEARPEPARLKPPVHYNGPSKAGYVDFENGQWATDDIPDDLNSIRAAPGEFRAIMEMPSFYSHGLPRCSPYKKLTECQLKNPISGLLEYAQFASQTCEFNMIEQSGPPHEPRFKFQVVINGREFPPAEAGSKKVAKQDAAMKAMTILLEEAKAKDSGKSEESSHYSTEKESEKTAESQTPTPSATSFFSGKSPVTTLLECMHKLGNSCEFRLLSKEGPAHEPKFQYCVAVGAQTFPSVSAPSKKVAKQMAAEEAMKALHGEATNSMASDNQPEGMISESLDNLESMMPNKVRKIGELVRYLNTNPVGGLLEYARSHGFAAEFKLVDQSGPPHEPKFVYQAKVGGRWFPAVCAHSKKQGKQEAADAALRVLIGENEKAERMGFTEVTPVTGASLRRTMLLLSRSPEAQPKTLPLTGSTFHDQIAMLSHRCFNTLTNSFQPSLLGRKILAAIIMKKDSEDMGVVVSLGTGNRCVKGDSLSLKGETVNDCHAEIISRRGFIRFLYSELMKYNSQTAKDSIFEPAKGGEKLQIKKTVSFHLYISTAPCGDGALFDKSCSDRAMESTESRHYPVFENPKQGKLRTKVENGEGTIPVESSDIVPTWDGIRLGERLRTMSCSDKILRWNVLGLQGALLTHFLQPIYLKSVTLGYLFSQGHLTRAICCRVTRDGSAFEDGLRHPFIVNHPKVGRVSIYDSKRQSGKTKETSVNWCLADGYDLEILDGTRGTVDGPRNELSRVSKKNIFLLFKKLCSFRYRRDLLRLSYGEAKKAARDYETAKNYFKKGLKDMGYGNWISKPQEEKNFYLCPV
Briefly: in vitro editing assay with recombinant ADAR1p110 and dsRNA or DNA:RNA substrates. The class given is biochemical. The following applies: for inhibitory potency of ADAR1 p110 editing activity (SAR analogs): data not shown. How it is done:
FIG. 26A-FIG. 26B show determination of IC50 by in vitro editing assay. In vitro editing assay using purified ADAR1p110 protein and two different substrates, matched (left) and mismatched (right) dsRNAs, was conducted in the presence of varying concentrations of compound #1 (FIG. 26A) or #13 (FIG. 26B) in order to estimate IC50 values for these compounds. In vitro editing was carried out using HAT-ADAR1p110 or HAT-ADAR2 recombinant protein (10 nM) and two different dsRNA substrates carrying a part of the CDK13 gene sequence (5 nM) at 37° C. for 2 hrs as described previously (12). Compounds were dissolved in 100% DMSO. The in vitro assay contained DMSO at final concentration of 16%.
The in vitro editing reaction mixture, containing 5 nM of telomere RNA:RNA duplex substrates and 75 nM of HAT-ADAR1p110-WT, FLAG-ADAR1p110-WT, or HA-ADAR1p110-EAA protein, was incubated at 37° C. for 2 h in in vitro editing buffer I (20 mM HEPES-KOH pH 7.5, 100 mM NaCl, 0.01% NP-40, 5% glycerol, 1 mM DTT). For editing of RNA:DNA hybrid substrates, in vitro editing buffer II (20 mM HEPES-KOH pH 7.5, 20 mM NaCl, 0.01% NP-40, 5% glycerol, 1 mM DTT) was used. Edited RNA or DNA strands were purified using Dynabeads MyOne Streptavidin C1 (Thermo Fisher Scientific). To remove opposite RNA or DNA strands, rNase H (NEB) or TURBO dNase (Thermo Fisher Scientific) was used, respectively. For sequencing of edited substrates, reverse transcription-PCR was carried out for RNA strands, while PCR was carried out for DNA strands. RT reactions were carried out using SuperScript III Reverse Transcriptase (Thermo Fisher Scientific), and PCR reactions were performed using Platinum Taq DNA polymerase (Thermo Fisher Scientific). PCR products were sequenced using a specific sequencing primer, and the ratio of A and G peaks in the chromatograms were analyzed by CodonCode Aligner (CodonCode Corporation).
The 54 compounds identified in the high-throughput screen were further tested in the in vitro editing assay described in Examples 1 and 2. The in vitro editing reaction mixture, containing 5 nM of telomere RNA:RNA duplex substrates and 75 nM of HAT-ADAR1p110-WT, FLAG-ADAR1p110-WT, or HA-ADAR1p110-EAA protein, was incubated at 37° C. for 2 h in in vitro editing buffer I (20 mM HEPES-KOH pH 7.5, 100 mM NaCl, 0.01% NP-40, 5% glycerol, 1 mM DTT) with 10 microM test compound. For editing of RNA:DNA hybrid substrates, in vitro editing buffer II (20 mM HEPES-KOH pH 7.5, 20 mM NaCl, 0.01% NP-40, 5% glycerol, 1 mM DTT) was used. Edited RNA or DNA strands were purified using Dynabeads MyOne Streptavidin C1 (Thermo Fisher Scientific). To remove opposite RNA or DNA strands, Rnase H (NEB) or TuRBO Dnase (Thermo Fisher Scientific) was used, respectively. For sequencing of edited substrates, reverse transcription-PCR was carried out for RNA strands, while PCR was carried out for DNA strands. RT reactions were carried out using SuperScript III Reverse Transcriptase (Thermo Fisher Scientific), and PCR reactions were performed using Platinum Taq DNA polymerase (Thermo Fisher Scientific). PCR products were sequenced using a specific sequencing primer, and the ratio of A and G peaks in the chromatograms were analyzed by CodonCode Aligner (CodonCode Corporation).

In experiment [3] the test system is HeLa cells. Briefly: Apo Tox-Glo viability assay, HeLa cells. The class given is cell-based, human. The following applies: 5 μM, 3 days. The protocol: as §1, §2
Experiment [4] deals with U2OS cells. Nature of the experiment: Apo Tox-Glo viability assay, U2OS cells. The experiment is classed as cell-based, human. The following applies: 5 μM, 3 days. How it is done: as §1, §2
[5] abbreviates: matched dsRNA substrate, read-out: IC50 estimated by in vitro editing assay, RNA:RNA.
Where [6] appears, read: mismatched dsRNA substrate, read-out: IC50 estimated by in vitro editing assay, RNA:mmRNA.
Setting [7] is: DNA:RNA mismatched hybrid substrate, read-out: IC50 estimated by in vitro editing assay, DNA:mmRNA.

The structures appear in SMILES notation. pIC50: −log10 of the molar value. Entries after “also recorded” stand apart in the source; their conditions may differ. Read-outs that look alike come from different tables or passages of the source.

As for `NC(=NOC(=O)c1ccc([N+](=O)[O-])o1)c1ccc(OCc2ccc(Cl)cc2)c(Cl)c1` [Compound #1, [[amino-[3-chloro-4-[(4-chlorophenyl)methoxy]phenyl]methylidene]amino]5-nitrofuran-2-carboxylate], in experiment [1], the “viability of MRI90 (normal fibroblast) cells” value (shortened to “viability of MRI90”) was “very little effects”. The pIC50 (as a rule, the negative decadic logarithm of the IC50, by convention in mol/L) in experiment [2] (setting [5]) is 4.57; in experiment [2] (setting [6]) it was 4.48. For the same molecule, in experiment [3], the “viability of HeLa (non-ALT) cells” value is reported as “significantly decreased viability; also recorded: significantly reduced viability”.
On to `O=C(Nc1ccccc1)c1sc2ccccc2c1Cl` [Compound #13-Analog 1], for which the “inhibitory potency of ADAR1 p110 editing activity (SAR analogs)” value in experiment [2] is “complete loss of inhibitory potency; also recorded: inactive compound”.
Same read-out and setting: the entry for `N#Cc1ccccc1NC(=O)c1sc2ccccc2c1Cl` [Compound #13-Analog 2] is “weaker but retained A-to-I editing inhibitory activity”.
Turning to `Cc1cc(C)n2nc(-c3ccccc3)cc2n1` [compound 6, 5,7-dimethyl-2-phenylpyrazolo[1,5-a]pyrimidine], the “viability of MRI90” value in experiment [1] is given as “very little effects”. For the same molecule, the negative logarithm of the IC50 (pIC50) in experiment [2] (setting [7]) is 4.12 to 4.52. Further, the “viability of HeLa (non-ALT) cells” value in experiment [3] is “significantly decreased viability; also recorded: significantly reduced viability”. Besides, the “viability of U2OS (ALT) cells” value in experiment [4] is on record as “very little effects”.
In the case of `N#Cc1c(-c2ccccc2)cc(SCc2ccc(Cl)cc2)n2c1nc1ccccc12` [compound 23, 1-[(4-chlorophenyl)methylsulfanyl]-3-phenylpyrido[1,2-a]benzimidazole-4-carbonitrile], the pIC50 in experiment [2] (setting [5]) is 4.17; in experiment [2] (mismatched dsRNA substrate, adenosine position 6, read-out: IC50 estimated by in vitro editing assay, RNA:mmRNA, Position 6) it was 4.18.
With `CSc1[nH]nc(-c2ccc(Cl)cc2)c1C#N` [compound 27, 5-(4-chlorophenyl)-3-methylsulfanyl-1H-pyrazole-4-carbonitrile], in experiment [1], the “viability of MRI90” value was “very little effects”. In experiment [2] (setting [7]), the pIC50 is 4.77 to 5.30. In experiment [3], the “viability of HeLa (non-ALT) cells” value is reported as “significantly decreased viability; also recorded: significantly reduced viability”. Further, the “viability of U2OS (ALT) cells” value in experiment [4] is on record as “very little effects”.
On to `Cc1cc(C)n(-c2ccc(N3CCSCC3)nn2)n1` [compound 37, 4-[6-(3,5-dimethylpyrazol-1-yl)pyridazin-3-yl]thiomorpholine], for which the pIC50 is 5.00 to 5.52 in experiment [2] (setting [7]); 4.16 in experiment [2] (matched dsRNA substrate, adenosine position 2, read-out: IC50 estimated by in vitro editing assay, RNA:RNA, Position 2); 5.52 in experiment [2] (matched dsRNA substrate, adenosine positions 3 & 6, read-out: IC50 estimated by in vitro editing assay, RNA:RNA, Position 3 & 6); 4.34 in experiment [2] (setting [6]).
With `COc1cc(C2=NNC(=O)CC2)cc(OC)c1OC` [compound 40, 3-(3,4,5-trimethoxyphenyl)-4,5-dihydro-1H-pyridazin-6-one], the figures for the negative logarithm of the IC50 (pIC50) in experiment [2] (setting [5]) and in experiment [2] (setting [6]) were 4.24 and 4.57, respectively.
As to `CSc1nc(SC)c(C#N)c(-c2ccco2)n1` [compound 52, 4-(furan-2-yl)-2,6-bis(methylsulfanyl)pyrimidine-5-carbonitrile], in experiment [2] (setting [7]), the pIC50 is 5.52 to 5.82. In experiment [2] (matched dsRNA substrate, FIG. 25C, 10 microM test compound), the “inhibition of editing of A:U matched dsRNA” value is “not A:U matched dsRNA”. The “inhibition of editing of A-C mismatched dsRNA” value is recorded as “inhibited A-C mismatched dsRNA” in experiment [2] (mismatched dsRNA substrate, FIG. 25C, 10 microM test compound) and “more specific inhibitory effects on adenosine at A-C mismatched base pairs” in experiment [2] (mismatched dsRNA substrate, FIG. 25C, 10 microM test compound, listed as #52).
